Measurements reported in patent US20210386756A1, “IMPROVEMENTS FOR PERFORMING AND FACILITATING THE RECOVERY AFTER HEMATOPOIETIC STEM CELL TRANSPLANTATION” (Centro de Investigaciones Energéticas, Medioambientales y …, priority 2018, published 2021).

Assays:
[1] = biological target: T1, sex hormone-binding globulin (SHBG) (Homo sapiens, UniProt P04278); conditions: cited from earlier work
T1 sequence (P04278 30-402): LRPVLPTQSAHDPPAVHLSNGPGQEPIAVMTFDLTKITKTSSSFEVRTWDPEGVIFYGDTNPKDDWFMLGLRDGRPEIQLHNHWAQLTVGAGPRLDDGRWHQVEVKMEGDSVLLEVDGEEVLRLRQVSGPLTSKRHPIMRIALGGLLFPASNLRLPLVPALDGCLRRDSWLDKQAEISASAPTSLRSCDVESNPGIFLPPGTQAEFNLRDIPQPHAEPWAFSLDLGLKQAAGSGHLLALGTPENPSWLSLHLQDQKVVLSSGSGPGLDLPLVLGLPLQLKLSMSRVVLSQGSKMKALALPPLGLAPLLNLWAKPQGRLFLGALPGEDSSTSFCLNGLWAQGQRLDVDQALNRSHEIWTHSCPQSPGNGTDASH

[2] = test system: mouse MSCs (mCD140a+) and vascular endothelial cells (mCD144+); assay: Mouse BM niche analysis (MSCs and vascular endothelial cells) after transplant and estrogen treatment; type: in vivo; conditions: four months after transplant, versus vehicle-treated animals
Experimental: FIG. 12 refers to modulation of the hematopoietic niche by estrogens. […] FIG. 12B refers to the relative mouse vascular endothelial cells (mCD144+ or VE-Cadherin+) in the BM of the male mice transplanted with 5×10^4 hCB-CD34+ cells analyzed 4 months after transplantation. […] Data are presented by dots and box-plots that represent the interquartile range (p75, upper edge; p25, lower edge; p50, midline; p95, line above the box; and p5, line below the box). Significance was analyzed by Mann-Whitney U test and represented by **P<0.01.
To provide a further insight into the positive impact of estrogens on promoting human hematopoietic engraftment, we examined mesenchymal and vascular endotelial compartments of the mouse BM niche four months after being transplanted and treated with E2 (estradiol) or E4 (estetrol). The percentage of mouse MSCs (mCD140a+, also called Pdgfra+) and vascular endothelial cells (mCD144+, also called VE-Cadherin+) was analyzed in the non-hematopoietic compartment ([…]).

human cord blood CD34+ = assay: Human engraftment in male NSG mice transplanted with a limited CD34+ cell dose (5×10^3); type: in vivo, mouse
Experimental: FIG. 6A indicates the level of human engraftment, which was raised by E4 administration. […] (Kruskal-Wallis test; P=0.1150, 7-10 mice per group). […] Three-four months later, the animals were sacrificed and the human hematopoietic engraftment was analyzed by FACS. Human hematopoietic population was identified as the cells positive for hCD45-APC-Cy7 (Biolegend) and negative for mouse CD45.1-PE (Biolegend). To determine whether estrogen can improve hematopoietic reconstitution of low number of hematopoietic progenitors, male NSG were irradiated and transplanted with low doses of human cord blood CD34+ (5×103 hCD34+). The human engraftment was analyzed as described in Example 1.

[3] = relative to other estrogens; cited from earlier work
ESRα = biological target: T2, ESRα (Homo sapiens, UniProt P03372); conditions: cited from earlier work
T2 sequence (P03372 1-595): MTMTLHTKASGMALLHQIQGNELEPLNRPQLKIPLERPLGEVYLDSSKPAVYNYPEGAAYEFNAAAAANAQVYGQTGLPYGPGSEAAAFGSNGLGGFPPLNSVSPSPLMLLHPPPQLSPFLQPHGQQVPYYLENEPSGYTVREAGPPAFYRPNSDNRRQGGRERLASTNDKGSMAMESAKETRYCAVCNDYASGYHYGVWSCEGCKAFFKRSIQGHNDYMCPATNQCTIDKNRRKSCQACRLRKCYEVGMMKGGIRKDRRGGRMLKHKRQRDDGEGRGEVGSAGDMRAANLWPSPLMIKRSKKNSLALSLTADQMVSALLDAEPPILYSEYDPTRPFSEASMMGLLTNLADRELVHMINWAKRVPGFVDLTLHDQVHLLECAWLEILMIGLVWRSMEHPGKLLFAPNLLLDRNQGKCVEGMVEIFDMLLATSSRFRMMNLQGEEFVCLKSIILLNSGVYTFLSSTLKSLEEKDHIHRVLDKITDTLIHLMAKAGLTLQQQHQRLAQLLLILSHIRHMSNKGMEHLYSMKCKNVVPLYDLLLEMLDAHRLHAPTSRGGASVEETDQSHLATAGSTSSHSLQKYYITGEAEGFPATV

[4] = test system: human cord-blood CD34+ cells; assay: Human hematopoietic engraftment in male NSG mice transplanted with 5×10^4 human cord-blood CD34+ cells; type: in vivo, mouse
Experimental: Three-four months later, the animals were sacrificed and the human hematopoietic engraftment was analyzed by FACS. Human hematopoietic population was identified as the cells positive for hCD45-APC-Cy7 (Biolegend) and negative for mouse CD45.1-PE (Biolegend). In order to further examine the effect of the estrogen in HSCT, hematopoietic progenitors (hCD34+) and hematopoietic stem cells (hCD34+/hCD38−) were analyzed by FACS inside of the human population in the treated NSG described in Example 1.

SMILES: C[C@]12CC[C@@H]3c4ccc(O)cc4CC[C@H]3[C@@H]1[C@@H](O)[C@@H](O)[C@@H]2O [E4, estetrol]
- binding by SHBG [1]: not bound
- number of mCD140a+ cells (mouse MSCs) in BM [2]: increased
- proportion of engrafted mice (human engraftment above 0.1%) (human cord blood CD34+; 5×10^3 CB-CD34+): 70%
- change of the proportion of engrafted mice versus vehicle (human cord blood CD34+; limited HPC dose, engraftment above 0.1%): almost tripled
- Percentage of human hematopoietic reconstitution (human cord blood CD34+; low dose 5×103 hCD34+, mean +/− SEM): 3.20 +/− 1.43 (n = 9) %
- in vivo half-life [3]: considerably longer than that of other estrogens
- affinity for ER relative to β-estradiol (ESRα): less affinity than β-estradiol
- affinity for ESRα versus ESRβ (ESRα): high affinity for ESRα as compared to the ESRβ
- Percentage in the human hematopoietic population: hematopoietic stem cells ([4]; hCD34+/hCD38−, male NSG, 5×10^4 CD34+, 2 μg daily for four days, mean +/− SEM): 0.87 +/− 0.11 (n = 11) %
- Percentage in the human hematopoietic population: hematopoietic progenitors ([4]; hCD34+, male NSG, 5×10^4 CD34+, 2 μg daily for four days, mean +/− SEM): 13.94 +/− 0.85 (n = 11) %
- Percentage of human hematopoietic reconstitution ([4]; male NSG, 5×10^4 CD34+, 2 μg daily for four days, three-four months later, mean +/− SEM): 47.47 +/− 6.08 (n = 9) %
- Percentage in the human hematopoietic population: Lymphoid ([4]; male NSG, 5×10^4 CD34+, 2 μg daily for four days, CD19+, mean +/− SEM): 81.22 +/− 4.83 (n = 5) %
- Percentage in the human hematopoietic population: Myeloid ([4]; male NSG, 5×10^4 CD34+, 2 μg daily for four days, CD33+, mean +/− SEM): 8.24 +/− 1.65 (n = 5) %
- human hematopoietic progenitors (hCD34+) and human HSC (hCD34+CD38−) in the human engraftment, significance ([4]; three months post-transplant, Kruskal-Wallis P<0.05): statistically significant differences compared to controls and E2 treated group
